Measurements published in patent publication US12180159B2, “Activators of the unfolded protein response” (The Board of Trustees of the University of Illinois, priority 2018, dated 2024).
Where “and” joins values, the source holds several entries; their conditions need not be identical. Identical values can stand only once.

Test system: TYS-Luc (T47DERαY537S-Luc human breast cancer cells) orthotopic tumors
Assay: Orthotopic TYS-Luc mouse xenograft, bioluminescent imaging (BLI) of tumor flux
Assay type: in vivo
Method: In a treatment and vehicle-controlled mouse tumor study, human breast cancer cells were engineered to contain both the lethal ERαY537S mutation found in metastatic breast cancer, and the gene for firefly luciferase—when the appropriate chemical is added, the firefly luciferase breaks down the chemical and light is produced. Using a sensitive detector called an imaging system, this allows us to image the tumors inside live mice. This is called bioluminescent imaging, or BLI. Large tumors were allowed to form. Then (−)-105 was injected daily under the skin for three weeks. Using the imaging system, the effect of (−)-105 on the tumors was monitored. At the same time the effect of the vehicle in which (−)-105 was dissolved on tumors was also monitored.
A study was performed to determine what happens after stopping treatment with (−)-105 (Table 2). The study was designed to show whether the micro-tumors would remain dormant, or whether they would regrow. At the end of the three-week treatment, there is residual material that gives off a tiny amount of light which are termed “micro-tumors”. Based on sensitivity of the imaging system, it is believed these micro-tumors contain anywhere from 0-˜1,000 cancer cells; the micro-tumors will not be visible to the naked eye. Seeing them requires the powerful imaging system, or a microscope. To test whether these cells are either dead, or no longer dividing and are dormant, the cells two and 4 weeks after they stopped receiving any treatment were imaged. This study tested whether growing cancer cells have been eradicated; this study continues.
In a 3-week study, large breast tumors were present at start of treatment and regressed as shown in the image of FIG. 17. The study was performed using Orthotopic TYS-Luc (injected cells: T47DERα Y537-Luc human breast cancer cells), e.g., the most lethal ERα mutation in human in metastatic breast cancer. Tumors were grown in NSG mice. Further details are provided in the Examples.
Experimental Details of the Xenografts: TYS-Luc cells (5,000,000 cells in Matrigel) were injected into the upper mammary fat pad of ovariectomized female NSG (SCID) mice (Jackson labs). After 10 weeks, on day 0, large tumors (size range: 100-600 mm^3) were present. Mice were treated with the vehicle used to dissolve (−)-105, or (−)-105 at 40 mg/kd daily by subcutaneous injection. For bioluminescent imaging (BLI) of the tumors, the mice were anesthetized with isoflurane and Lucerfin, the luciferase substrate, was injected into the mice. Flux, the total member of light photons hitting the detector in one second was measured using an IVIS ([…]). Shown is the flux (in millions of units per second) for the entire area containing each tumor, or an equivalent area when the tumor is tiny or undetectable and the percent change in tumor size at each time a measurement was taken (day 0, day 3, week 1, week 2, week 3). Then treatment was stopped, and another measurement was taken two weeks letter. Note that tumors were also measured with calipers. […] After three days all the (−)-105 tumors has declined to undetectable using calipers.

[1] = after 3 days of treatment, all 5 mice

## O=C1Nc2c(C(F)(F)F)cccc2C1(c1ccc(O)cc1)c1ccc(OC(F)(F)F)cc1 (single isomer, unassigned; (-)) [(−)-105, 3-(4-hydroxyphenyl)-3-(4-(trifluoromethoxy)phenyl)-7-(trifluoromethyl)indolin-2-one]
4 weeks after stopping treatment
  micro-tumor regrowth after stopping treatment: NO “MICRO-TUMOR” REGROWTH
After 3 days of treatment, 4 of 5 tumors
  tumor shrinkage (regression) by BLI, 4 of the 5 tumors: more than 99.9%
[1]
  tumor shrinkage (regression) by BLI, all five tumors: more than 99%
  tumor size using calipers: undetectable
After three weeks
  tumor shrinkage by BLI, 3 of the remaining 4 mice: more than 99.9%
After three weeks, one mouse
  tumor change in one mouse (complete regression): −100%
Per mouse, day 0 (start of treatment, baseline)
  Day 0 Flux: 2,130 millions of photons/sec and 277 millions of photons/sec and 72.6 millions of photons/sec and 1,880 millions of photons/sec and 1,650 millions of photons/sec
Per mouse, day 14 vs day 0
  Day 14 % Change in Tumor Flux: 99.66%
three-week treatment
  health of the treated mice / toxicity: No toxicity
Two weeks after treatment was stopped
  micro-tumor regrowth after stopping treatment: the microtumors had not started growing again
Within seven days, all 5 tumors
  tumor size using calipers: undetectable
